From patent US7153472B1, “Preservation and formulation of bioactive materials for storage and delivery in hydrophobic carriers” (priority 2000, dated 2006)

Assays:
[1] = Potency of Amphotericin after foam drying and storage; type: physicochemical
Method: Freeze-dried samples of Amphotericin B were rehydrated with 5 ml 40 wt % sucrose per vial. Then the solutions (5 ml) were transferred into 50 ml sterilized glass vials for future preservation by drying. Before drying, the vials were covered with gray butyl slotted rubber stoppers. The vials were dried inside a vacuum chamber. The vials were placed on the surface of a stainless steel shelf inside the chamber. Before the vacuum was applied the shelf temperature was decreased to 5 C. The hydrostatic pressure inside the chamber was decreased to 0.5 Torr. Under such conditions the suspension boiled for 30 min. The temperature of the shelf was then slowly (during 30 min) increased to 25 C. Visually, stable dry foams were formed inside the vials under these experimental conditions within 3 hours. After an additional 12 hours of drying at room temperature, the chamber was filled with the dry N2 gas and the rubber stoppers in a portion of the vials were pushed down. The vials were removed from the chamber and subsequently sealed with aluminum crimped seal. The samples were assayed right after drying and after 30 days of storage at 27.5 and 40 C. The results are shown in Table 1, together with the results obtained in the next experiment.
Another set of freeze-dried samples of Amphotericin B was rehydrated with 5 ml 40 wt % sucrose per vial. The solutions were then transferred into sterilized glass vials for future preservation by drying similar to that described above with additional drying at 45 C for additional 24 hours. After that, the chamber was filled again with the dry N2 gas, the rubber stoppers were pushed down and the vials were sealed. The samples were assayed right after drying and after 30 day of storage at 27.5 and 40 C.

[2] = Urokinase activity after foam drying and storage; type: biochemical
Method: Freeze-dried samples of Urokinase were rehydrated with 2 ml of 40 wt % sucrose. The solutions were then transferred to 20 ml sterilized glass vials for future preservation by drying. Before drying, the vials were covered with gray slotted rubber stoppers. The vials were dried inside a vacuum chamber. The vials were sitting on the surface of a stainless steel shelf inside the chamber. Before the vacuum was applied the shelf temperature was decreased to 5 C. Then the hydrostatic pressure inside the chamber was decreased to 0.5 Torr. Under such conditions, the suspension boiled for 30 min. […] Visually, under these experimental conditions, stable dry foams were formed inside the vials within 3 hours. After an additional 12 hours of drying at room temperature, the temperature was increased to 45 C for an additional 24 hours. After that the chamber was filled with dry N2 gas, the rubber stoppers were pushed down and the vials were sealed with aluminum crimp seals.
The samples were assayed right after drying and after 30 days of storage at 40 C. After drying the Urokinase, activity was 93% of the initial activity. This decrease was associated with the loss of Urokinase during transfer from initial vials to the vials at which the Urokinase was dried. After 30 days of storage at 40 C the activity was 90%. […]

[3] = aqueous 50% glycerol solution from Sigma Chemical Co., before dialysis; cited from earlier work
[4] = isocitrate dehydrogenase activity (NADP reduction at 340 nm) after preservation by foam drying; type: biochemical
Method: An aqueous 50% glycerol isocitrate dehydrogenase solution from Sigma Chemical Co. containing 59.4 units of activity per ml was dialyzed for 5 hours in 0.1 M TRIS HCl buffer (pH 7.4). The activity of the isocitrate dehydrogenase in the 0.1 M TRIS HCl solution after dialysis was 26±1.8 units per ml. The activity decrease was associated with a decrease in the enzyme concentration because of dilution during the dialysis.
A mixture (100 l) containing 50 l of 50% by weight sucrose solution and 50 l of the isocitrate dehydrogenase suspension in 0.1 M TRIS HCl buffer (pH 7.4) was placed in 1.5 ml plastic tubes and preserved by drying at room temperature. First, the samples were dried for 4 hours under low vacuum (0.2 atm). Second, the samples were boiled during 4 hours under high vacuum (<0.01 atm). During this step, a mechanically stable dry foam was formed in the tubes. Third, the samples were stored during 8 days over DRIERITE under vacuum at room temperature.
After 8 days, the samples were rehydrated with 500 l water. Rehydration of the samples containing dry foams was an easy process that was completed within several seconds. The reconstituted sample was assayed for activity by assaying ability to reduce NADP, measured spectrophotometrically at 340 nm. The reaction mix included: 2 ml 0.1 M TRIS HCl buffer, pH 7.4; 10 l of 0.5% by weight NADP+; 10 l of 10 mM MnSO4; 10 l of 50 mM 1-isocitrate; and 10 l of an isocitrate dehydrogenase solution.

C[C@@H]1[C@H](O)[C@@H](C)/C=C/C=C/C=C/C=C/C=C/C=C/C=C/[C@H](O[C@@H]2O[C@H](C)[C@@H](O)[C@H](N)[C@@H]2O)C[C@@H]2O[C@](O)(C[C@@H](O)C[C@@H](O)[C@H](O)CC[C@@H](O)C[C@@H](O)CC(=O)O[C@H]1C)C[C@H](O)[C@H]2C(=O)O [Amphotericin, Amphotericin B]
Potency of Amphotericin (%) ([1]; Control (printed in column After drying)): 126%
Potency of Amphotericin (%) After 30 days at 27.5 C. ([1]; Td = 25 C): 114%
Potency of Amphotericin (%) After 30 days at 40 C. ([1]; Td = 25 C): 95%
Potency of Amphotericin (%) After drying ([1]; Td = 25 C): 108%
Potency of Amphotericin (%) After 30 days at 27.5 C. ([1]; Td = 45 C): 102%
Potency of Amphotericin (%) After 30 days at 40 C. ([1]; Td = 45 C): 104%
Potency of Amphotericin (%) After drying ([1]; Td = 45 C): 103%

Urokinase
Urokinase activity, % of the initial activity ([2]; after 30 days of storage at 40 C): 90%
Urokinase activity, % of the initial activity ([2]; right after drying (40 wt % sucrose foam, up to 45 C)): 93%

isocitrate dehydrogenase
activity of isocitrate dehydrogenase solution [3]: 59.4 units of activity per ml
loss of activity during drying and subsequent storage ([4]; 8 days at room temperature): no loss of activity
activity after rehydration ([4]; dried with sucrose to foam, stored 8 days over DRIERITE under vacuum at room temperature, 100 l sample rehydrated with 500 l water): 2.6±0.2 units/ml
activity of isocitrate dehydrogenase after dialysis ([4]; in 0.1 M TRIS HCl (pH 7.4) after 5 hours dialysis): 26±1.8 units per ml
